This is an account of results in patent US9994594B2, “Inhibitors of arginase and their therapeutic applications” (MARS, INCORPORATED, priority 2010, dated 2018).

Molecules are shown by their SMILES. Structures can show the parent of a compound that is named as a salt. Where two headings read alike, the source gives them in different places.

For test [1] the following is noted: spontaneously hypertensive animals; cited from earlier work.
Test [2] has as its system central airways. The settings on record: murine chronic model; cited from earlier work.
For test [3], the system named is MDSC. The settings on record: tumor bearing mice; cited from earlier work.
The subject of test [4] is experimental autoimmune encephalomyelitis (EAE). The settings on record: compared with control animals; cited from earlier work.
The test system of test [5] is bacterial arginase. Particulars: H. pylori; cited from earlier work.
In test [6] the test system is penile erectile response. The experiment in a line: Erectile dysfunction efficacy model: penile erectile response in vivo. As for the experimental part: As described hereinabove, the compounds according to the invention are useful in the treatment and prevention of a variety of disorders and conditions that are affected by levels of nitric oxide (NO) regulated, in part, by arginase enzymes. The compounds are assessed for efficacy in such treatment and prevention by their performances in standardized in vivo tests. In vivo models to assess efficacy are developed for this purpose as described below.
The inventive compounds are candidate therapeutics for treating ED, as assessed by measurements of penile erectile response according to a protocol described by Wingard C, Fulton J, and Husain S, J Sex Med 4: 348-363, 2007.

Test [7] addresses T1, human arginase I (ARG I) (Homo sapiens, UniProt P05089).
T1 sequence (P05089 1-322): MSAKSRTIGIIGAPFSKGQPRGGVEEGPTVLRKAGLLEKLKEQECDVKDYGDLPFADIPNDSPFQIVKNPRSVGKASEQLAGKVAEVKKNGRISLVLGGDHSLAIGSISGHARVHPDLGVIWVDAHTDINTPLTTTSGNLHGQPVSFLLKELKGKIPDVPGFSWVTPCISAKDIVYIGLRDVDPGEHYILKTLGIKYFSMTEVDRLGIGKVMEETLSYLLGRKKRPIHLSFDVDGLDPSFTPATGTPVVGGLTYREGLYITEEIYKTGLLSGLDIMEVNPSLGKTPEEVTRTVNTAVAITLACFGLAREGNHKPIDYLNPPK
Nature of the test: Inhibition of arginase I, spectrophotometric urea assay at 530 nm. The format is biochemical. The settings on record: read-out: Potency (ARG I). In a few lines:
(§1)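 IC50 was derived by regression of OD530 normalized to uninhibited-enzyme controls against log concentration. Urea from 60-min, 37 °C turnover of L-arginine with manganese sulfate was detected after acid o-phthaldialdehyde/primaquine quench and 10 min colour development. Arginase I and II came from 100 ng/ml stocks in pH 7.4 phosphate with ovalbumin.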

Test [8] has as its target T2, arginase II (ARG II) (Homo sapiens, UniProt P78540).
T2 sequence (P78540 23-354): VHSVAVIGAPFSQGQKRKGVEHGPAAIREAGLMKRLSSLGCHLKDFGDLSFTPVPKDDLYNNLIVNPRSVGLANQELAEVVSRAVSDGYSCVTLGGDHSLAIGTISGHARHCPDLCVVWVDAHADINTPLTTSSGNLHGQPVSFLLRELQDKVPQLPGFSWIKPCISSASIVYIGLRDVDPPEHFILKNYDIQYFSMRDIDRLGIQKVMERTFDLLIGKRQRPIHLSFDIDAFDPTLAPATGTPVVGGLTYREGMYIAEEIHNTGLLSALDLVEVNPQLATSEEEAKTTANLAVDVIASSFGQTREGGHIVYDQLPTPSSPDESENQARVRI
The experiment in a line: Inhibition of arginase II, spectrophotometric urea assay at 530 nm. The format is biochemical. In a few lines: as §1

[9] abbreviates: Formula I compounds, Table 2, read-out: Potency (ARG II).
Where [10] appears, read: Formula II compounds, Table 2-A.
The mark [11] stands for this setting: Formula II compounds, Table 2-A, read-out: Potency (ARG).

Consider `N=C(NO)NCC[C@H](N)C(=O)O` [nor-NOHA, N^ω-hydroxy-nor-L-arginine], for which, in test [1], the blood pressure entry is listed as “lowered blood pressure”; the “vascular response of resistance vessels to blood flow and pressure” value was “improved the vascular response of resistance vessels to blood flow and pressure”. Take `N[C@@H](CSCCB(O)O)C(=O)O` [S-(2-boronoethyl)-L-cysteine]: the “methacholine induced responsiveness of the central airways” value in test [2] is “attenuated”. As to `Nc1ccn([C@@H]2O[C@H](CO)[C@@H](O)C2(F)F)c(=O)n1` [gemcitabine], in test [3], the MDSC immunesuppression result is “eliminates MDSC immunesuppression” and the tumor growth result is on record as “delayed tumor growth”. As for `O=c1[nH]cc(F)c(=O)[nH]1` [5-Fluorouracil], in test [3], the MDSC immunesuppression entry is listed as “eliminates MDSC immunesuppression” and the tumor growth result was “delayed tumor growth”.

`NC(CCCCB(O)O)C(=O)O` (stereo not shown) [ABH, amino-6-boronohexanoic acid]: the “severity of EAE” value in test [4] is listed as “much milder form of EAE than in control animals”.

Take `NC(=NCCC[C@H](N)C(=O)O)NO` [NOHA]: in test [5], the “CD3 expression on T-cells” value was “reestablished CD3 expression on T-cells” and the “production of NO by macrophages” value is recorded as “enhanced production of NO by macrophages”. As to `N[C@@](CCCCB(O)O)(CCN1CCCCC1)C(=O)O` [Enantiomer of Ex. 13], the “Effect: increased erectile response relative to baseline” value in test [6] (@ 2.5 V stimulation) was 0 (0 <10%). Besides, the “eliciting erectile responses in vivo” value in test [6] (in words) is listed as “is not”.

For the molecule `CCCCC1(NCCC(N)(CCCCB(O)O)C(=O)O)CC1` (stereo not shown) [compound 60, 2-amino-6-borono-2-(2-(1-butylcyclopropylamino)ethyl)hexanoic acid dihydrochloride], the IC50 in test [7] (Formula I compounds, Table 2) lay in the range of 0.1 to 250 nM; in test [8] (setting [9]), 251 to 1000 nM.

In the case of `COc1cccc(-c2ccccc2CN2CCC(C(N)(CCCCB(O)O)C(=O)O)CC2)c1` (stereo not shown) [Example 58-A, 2-amino-6-borono-2-(1-((3′-methoxybiphenyl-2-yl)methyl)piperidin-4-yl)hexanoic acid dihydrochloride], the IC50 lay in the range of 0.1 to 250 nM in test [7] (setting [10]) and 251 to 1000 nM in test [8] (setting [11]). For the molecule `NC(CCCCB(O)O)(CCNC1CCCC1)C(=O)O` (stereo not shown) [compound 72, 2-amino-6-borono-2-(2-(cyclopentylamino)ethyl)hexanoic acid dihydrochloride], the IC50 in test [7] (Formula I compounds, Table 2) lay in the range of 251 to 1000 nM; in test [8] (setting [9]) it was 251 to 1000 nM.

In the case of `NC(CCCCB(O)O)(CCN1CC(O)C1)C(=O)O` (stereo not shown) [compound 59, 2-amino-6-borono-2-(2-(3-hydroxyazetidin-1-yl)ethyl)hexanoic acid dihydrochloride], the IC50 in test [7] (Formula I compounds, Table 2) was 1000 to 2000 nM; in test [8] (setting [9]) it was 2000 to 5000 nM.

For the molecule `NC(CCCCB(O)O)(C(=O)O)C1CCN(Cc2ccc(Oc3ccc(Cl)c(Cl)c3)cc2)CC1` (stereo not shown) [Example 64-A, 2-amino-6-borono-2-(1-(4-(3,4-dichlorophenoxy)benzyl)piperidin-4-yl)hexanoic acid dihydrochloride], the IC50 in test [7] (setting [10]) and in test [8] (setting [11]) was 0.1 to 250 nM each time. Take `NC(CCCCB(O)O)(C(=O)O)[C@H]1CCN(Cc2ccccc2)C1` (stereo partly drawn) [Example 68-A, 2-amino-2-((S)-1-benzylpyrrolidin-3-yl)-6-boronohexanoic acid dihydrochloride]: the IC50 in test [7] (setting [10]) and in test [8] (setting [11]) was 251 to 1000 nM each time.

Turning to `NC(CCCCB(O)O)(C(=O)O)C1CCN(CCCc2ccc(F)cc2F)CC1` (stereo not shown) [Example 52-A, 2-amino-6-borono-2-(1-(3-(2,4-difluorophenyl)propyl)piperidin-4-yl)hexanoic acid dihydrochloride], the IC50 in test [7] (setting [10]) and in test [8] (setting [11]) was 0.1 to 250 nM in each case. Consider `NC(CCCCB(O)O)(CCN1CCC1)C(=O)O` (stereo not shown) [compound 75, 2-amino-2-(2-(azetidin-1-yl)ethyl)-6-boronohexanoic acid dihydrochloride], for which the IC50 in test [7] (Formula I compounds, Table 2) lay within 251 to 1000 nM; in test [8] (setting [9]), 1000 to 2000 nM. `NC(CCCCB(O)O)(C(=O)O)C1CCN(CCc2ccc(F)c(F)c2)CC1` (stereo not shown) [Example 59-A, 2-amino-6-borono-2-(1-(3,4-difluorophenethyl)piperidin-4-yl)hexanoic acid acid dihydrochloride]: the IC50 in test [7] (setting [10]) and in test [8] (setting [11]) was 0.1 to 250 nM throughout. Turning to `COc1cc2c(cc1OC)CN(CCC(N)(CCCCB(O)O)C(=O)O)CC2` (stereo not shown) [compound 26, 2-Amino-6-borono-2-[2-(6,7-dimethoxy-3,4-dihydro-1H-isoquinolin-2-yl)ethyl]-hexanoic acid dihydrochloride], the IC50 in test [7] (Formula I compounds, Table 2) fell in the range of 251 to 1000 nM; in test [8] (setting [9]), 251 to 1000 nM. Consider `NC(CCCCB(O)O)(C(=O)O)C1CCN(c2cc(C(F)(F)F)ccn2)CC1` (stereo not shown) [9-A], for which the IC50 in test [7] (setting [10]) was 1000 to 2000 nM; in test [8] (setting [11]), 2000 to 5000 nM. As for `COC[C@@H]1CCCN1CCC(N)(CCCCB(O)O)C(=O)O` (stereo partly drawn) [compound 33, 2-amino-6-borono-2-(2-((S)-2-(methoxymethyl)pyrrolidin-1-yl)ethyl)hexanoic acid dihydrochloride], the IC50 in test [7] (Formula I compounds, Table 2) fell in the range of 251 to 1000 nM; in test [8] (setting [9]), 251 to 1000 nM.

For the molecule `NC(CCCCB(O)O)(C(=O)O)C1CCN(c2ncc(Cl)cc2Cl)CC1` (stereo not shown) [8-A, 2-amino-6-borono-2-(1-(3,5-dichloropyridin-2-yl)piperidin-4-yl)hexanoic acid], the IC50 in test [7] (setting [10]) and in test [8] (setting [11]) was 2000 to 5000 nM throughout.

Regarding `NC(CCCCB(O)O)(C(=O)O)C1CCN(Cc2ccc(F)c3ccccc23)CC1` (stereo not shown) [Example 51-A, 2-amino-6-borono-2-(1-((4-fluoronaphthalen-1-yl)methyl)piperidin-4-yl)hexanoic acid], the IC50 is 0.1 to 250 nM in test [7] (setting [10]) and 251 to 1000 nM in test [8] (setting [11]).
